# Measured values reported in patent US10934310B2, “Inhibitors of Bruton's tyrosine kinase and method of their use” (JANSSEN PHARMACEUTICA NV, priority 2015, dated 2021).
# Target: unphosphorylated-BTK kinase domain (UP-BTK), GST-tagged human BTK (389-659aa) (Homo sapiens (Human), UniProt Q06187)
# Assay: BTK Kinase Lanthascreen Binding Assay
# Conditions: Lanthascreen binding, 60 minutes incubation; pIC50 = negative log of the IC50 in molar
# Description: BTK Kinase Lanthascreen Binding Assay:
# A BTK kinase lanthascreen binding assay monitors compound binding to unphosphorylated-BTK kinase domain (UP-BTK), by competing with a fluorescent labeled tracer. […] Data were analyzed using Xlfit™ version 5.3 from ID Business Solutions (Guildford), Microsoft Excel add-in. pIC50 refers to the negative log of the IC50 in molar.
# unphosphorylated-BTK kinase domain (UP-BTK), GST-tagged human BTK (389-659aa), sequence (Q06187 389-659): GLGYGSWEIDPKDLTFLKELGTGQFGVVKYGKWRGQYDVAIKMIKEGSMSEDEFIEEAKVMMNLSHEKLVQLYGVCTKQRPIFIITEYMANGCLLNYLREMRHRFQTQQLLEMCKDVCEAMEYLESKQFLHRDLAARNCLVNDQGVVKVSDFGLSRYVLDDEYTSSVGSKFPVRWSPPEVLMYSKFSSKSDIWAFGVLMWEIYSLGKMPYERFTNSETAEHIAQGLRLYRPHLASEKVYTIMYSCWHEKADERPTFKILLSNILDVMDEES
row,Compound,BTK_I_binding pIC50
1,"C=CC(=O)N[C@@H]1CC[C@@H](NC(=O)c2sc3nccc4c3c2NC(=O)N4c2ccc(Oc3ccccc3)nc2)C1 (single isomer, unassigned) [Example 334, N-((1*R,3*R)-3-Acrylamidocyclopentyl)-4-oxo-5-(6-phenoxypyridin-3-yl)-4,5-dihydro-3H-1-thia-3,5,8-triazaacenaphthylene-2-carboxamide]",6.81
2,"Cc1cc(CC(C)C)ncc1N1C(=O)Nc2c(C(=O)N[C@@H]3CCCC[C@@H]3N)sc3nccc1c23 (single isomer, unassigned) [Example 335, N-((1R,2S)-2-Aminocyclohexyl)-5-(*S)-(6-isobutyl-4-methylpyridin-3-yl)-4-oxo-4,5-dihydro-3H-1-thia-3,5,8-triazaacenaphthylene-2-carboxamide]",6.38
3,"Cc1nc(Oc2ccccc2)ccc1N1C(=O)Nc2c(C(=O)N[C@@H]3CCC[C@H]3N)sc3nccc1c23 (single isomer, unassigned) [Example 339, N-((1R,2R)-2-Aminocyclopentyl)-5-(*S)-(2-methyl-6-phenoxypyridin-3-yl)-4-oxo-4,5-dihydro-3H-1-thia-3,5,8-triazaacenaphthylene-2-carboxamide]",6.28
4,"CC(=O)N[C@H]1CCCC[C@H]1NC(=O)c1sc2nccc3c2c1NC(=O)N3c1ccc(Oc2ccccc2)nc1C (single isomer, unassigned) [Example 340, N-((1R,2S)-2-Acetamidocyclohexyl)-5-(*S)-(2-methyl-6-phenoxypyridin-3-yl)-4-oxo-4,5-dihydro-3H-1-thia-3,5,8-triazaacenaphthylene-2-carboxamide]",6.26
5,"C=CC(=O)N[C@H]1CCCC[C@H]1NC(=O)c1sc2nccc3c2c1NC(=O)N3c1cnc(OC2CCCC2)cc1C (single isomer, unassigned) [Example 341, N-((1R,2S)-2-Acrylamidocyclohexyl)-5-(*R)-(6-(cyclopentyloxy)-4-methylpyridin-3-yl)-4-oxo-4,5-dihydro-3H-1-thia-3,5,8-triazaacenaphthylene-2-carboxamide]",6.23
6,"CCC(=O)N[C@H]1CCCC[C@H]1NC(=O)c1sc2nccc3c2c1NC(=O)N3c1ccc(Oc2ccccc2)nc1C (single isomer, unassigned) [Example 343, 5-(*S)-(2-Methyl-6-phenoxypyridin-3-yl)-4-oxo-N-((1R,2S)-2-propionamidocyclohexyl)-4,5-dihydro-3H-1-thia-3,5,8-triazaacenaphthylene-2-carboxamide]",6.11
7,"CC(=O)N[C@H]1CCC[C@H]1NC(=O)c1sc2nccc3c2c1NC(=O)N3c1ccc(Oc2ccccc2)nc1C (single isomer, unassigned) [Example 345, N-((1R,2S)-2-Acetamidocyclopentyl)-5-(*S)-(2-methyl-6-phenoxypyridin-3-yl)-4-oxo-4,5-dihydro-3H-1-thia-3,5,8-triazaacenaphthylene-2-carboxamide]",6.09
8,"CCC(=O)N[C@H]1CCC[C@H]1NC(=O)c1sc2nccc3c2c1NC(=O)N3c1ccc(Oc2ccccc2)nc1C (single isomer, unassigned) [Example 346, 5-(*S)-(2-Methyl-6-phenoxypyridin-3-yl)-4-oxo-N-((1R,2S)-2-propionamidocyclopentyl)-4,5-dihydro-3H-1-thia-3,5,8-triazaacenaphthylene-2-carboxamide]",6.07
9,"C=CC(=O)N[C@H]1CCC[C@H]1NC(=O)c1sc2nccc3c2c1NC(=O)N3c1ccc(OC2CCOCC2)cc1C (single isomer, unassigned) [Example 347, N-((1R,2S)-2-Acrylamidocyclopentyl)-5-(*R)-(2-methyl-4-((tetrahydro-2H-pyran-4-yl)oxy)phenyl)-4-oxo-4,5-dihydro-3H-1-thia-3,5,8-triazaacenaphthylene-2-carboxamide]",6.06

# Results, then the molecule that gave them:
row,BTK_I_binding pIC50,Compound
1,6.61,"Cc1cc(Oc2ccccc2)ncc1N1C(=O)Nc2c(C(=O)N[C@@H]3CC[C@H](N)C3)sc3nccc1c23 (single isomer, unassigned) [Example 355, N-((1R,3S)-3-Aminocyclopentyl)-5-(*S)-(4-methyl-6-phenoxypyridin-3-yl)-4-oxo-4,5-dihydro-3H-1-thia-3,5,8-triazaacenaphthylene-2-carboxamide]"
2,6.44,"CC(=O)N[C@@H]1CCC[C@H]1NC(=O)c1sc2nccc3c2c1NC(=O)N3c1ccc(Oc2ccccc2)nc1C (single isomer, unassigned) [Example 358, N-((1R,2R)-2-Acetamidocyclopentyl)-5-(*S)-(2-methyl-6-phenoxypyridin-3-yl)-4-oxo-4,5-dihydro-3H-1-thia-3,5,8-triazaacenaphthylene-2-carboxamide]"
3,8.05,"C=CC(=O)N[C@H]1CC[C@@H](NC(=O)c2sc3nccc4c3c2NC(=O)N4c2cnc(Oc3ccccc3)cc2C)C1 (single isomer, unassigned) [Example 359, N-((1R,3S)-3-Acrylamidocyclopentyl)-5-(*S)-(4-methyl-6-phenoxypyridin-3-yl)-4-oxo-4,5-dihydro-3H-1-thia-3,5,8-triazaacenaphthylene-2-carboxamide]"
4,6.26,"CC(=O)N[C@H]1CCC[C@@H](NC(=O)c2sc3nccc4c3c2NC(=O)N4c2cnc(Oc3ccccc3)cc2C)C1 (single isomer, unassigned) [Example 360, N-((1R,3S)-3-Acetamidocyclohexyl)-5-(*S)-(4-methyl-6-phenoxypyridin-3-yl)-4-oxo-4,5-dihydro-3H-1-thia-3,5,8-triazaacenaphthylene-2-carboxamide]"
5,7.94,"CCC(=O)N[C@H]1CC[C@@H](NC(=O)c2sc3nccc4c3c2NC(=O)N4c2cnc(Oc3ccccc3)cc2C)C1 (single isomer, unassigned) [Example 361, 5-(*S)-(4Methyl-6-phenoxypyridin-3-yl)-4-oxo-N-((1R,3S)-3-propionamidocyclopentyl)-4,5-dihydro-3H-1-thia-3,5,8-triazaacenaphthylene-2-carboxamide]"
6,6.31,"C=CC(=O)N[C@H]1CCC[C@@H](NC(=O)c2sc3nccc4c3c2NC(=O)N4c2cnc(Oc3ccccc3)cc2C)C1 (single isomer, unassigned) [Example 363, N-((1R,3S)-3-Acrylamidocyclohexyl)-5-(*S)-(4-methyl-6-phenoxypyridin-3-yl)-4-oxo-4,5-dihydro-3H-1-thia-3,5,8-triazaacenaphthylene-2-carboxamide]"
7,7.93,"C=CC(=O)N[C@H]1CC[C@@H](NC(=O)c2sc3nccc4c3c2NC(=O)N4c2cnc(OCC(C)C)cc2C)C1 (single isomer, unassigned) [Example 365]"
8,8.07,"C=CC(=O)N[C@H]1CC[C@@H](NC(=O)c2sc3nccc4c3c2NC(=O)N4c2cnc(OC3CCCC3)cc2C)C1 (single isomer, unassigned) [Example 366, N-((1R,3S)-3-Acrylamidocyclopentyl)-5-(*S)-(6-(cyclopentyloxy)-4-methylpyridin-3-yl)-4-oxo-4,5-dihydro-3H-1-thia-3,5,8-triazaacenaphthylene-2-carboxamide]"
9,8.23,"C=CC(=O)N[C@H]1CCC[C@H]1NC(=O)c1sc2nccc3c2c1NC(=O)N3c1cnc(OC2CCCC2)cc1C (single isomer, unassigned) [Example 371, N-((1R,2S)-2-Acrylamidocyclopentyl)-5-(*S)-(6-(cyclopentyloxy)-4-methylpyridin-3-yl)-4-oxo-4,5-dihydro-3H-1-thia-3,5,8-triazaacenaphthylene-2-carboxamide]"

# Same assay, conditions: read-out: BTK_I_binding pIC50 (converted)
row,Compound,IC50
1,"Cc1nc(Oc2ccccc2)ccc1N1C(=O)Nc2c(C(=O)N[C@@H]3CCCC[C@H]3N)sc3nccc1c23 (single isomer, unassigned) [Example 350, N-((1R,2R)-2-Aminocyclohexyl)-5-(*S)-(2-methyl-6-phenoxypyridin-3-yl)-4-oxo-4,5-dihydro-3H-1-thia-3,5,8-triazaacenaphthylene-2-carboxamide]",> 1 µM
2,"C=CC(=O)N[C@H]1CCCC[C@H]1NC(=O)c1sc2nccc3c2c1NC(=O)N3c1cnc(OCC(C)C)cc1C (single isomer, unassigned) [Example 352, N-((1R,2S)-2-Acrylamidocyclohexyl)-5-(*R)-(6-isobutoxy-4-methylpyridin-3-yl)-4-oxo-4,5-dihydro-3H-1-thia-3,5,8-triazaacenaphthylene-2-carboxamide]",> 1 µM
3,"CCC(=O)N[C@@H]1CCC[C@H]1NC(=O)c1sc2nccc3c2c1NC(=O)N3c1ccc(Oc2ccccc2)nc1C (single isomer, unassigned) [Example 353, 5-(*S)-(2-Methyl-6-phenoxypyridin-3-yl)-4-oxo-N-((1R,2R)-2-propionamidocyclopentyl)-4,5-dihydro-3H-1-thia-3,5,8-triazaacenaphthylene-2-carboxamide]",> 1 µM

# The remaining lines, values ahead:
row,IC50,Compound
1,> 1 µM,"Cc1cc(Oc2ccccc2)ncc1N1C(=O)Nc2c(C(=O)N[C@@H]3CCC[C@H](N)C3)sc3nccc1c23 (single isomer, unassigned) [Example 356, N-((1R,3S)-3-Aminocyclohexyl)-5-(*S)-(4-methyl-6-phenoxypyridin-3-yl)-4-oxo-4,5-dihydro-3H-1-thia-3,5,8-triazaacenaphthylene-2-carboxamide]"
2,> 1 µM,"CC(=O)N[C@@H]1CCCC[C@H]1NC(=O)c1sc2nccc3c2c1NC(=O)N3c1ccc(Oc2ccccc2)nc1C (single isomer, unassigned) [Example 362, N-((1R,2R)-2-Acetamidocyclohexyl)-5-(*S)-(2-methyl-6-phenoxypyridin-3-yl)-4-oxo-4,5-dihydro-3H-1-thia-3,5,8-triazaacenaphthylene-2-carboxamide]"
3,> 1 µM,"CCC(=O)N[C@H]1CCCC[C@H]1NC(=O)c1sc2nccc3c2c1NC(=O)N3c1ccc(Oc2ccccc2)nc1C (single isomer, unassigned) [Example 364, 5-(*S)-(2-Methyl-6-phenoxypyridin-3-yl)-4-oxo-N-((1R,2R)-2-propionamidocyclohexyl)-4,5-dihydro-3H-1-thia-3,5,8-triazaacenaphthylene-2-carboxamide]"
